Laboratory results published in the supplement of paper PMC10307832.

Legend:
Experiment in all cases: relative viability (nuclei count vs DMSO), 5 days (fraction); higher = more cells survive
[1] = tested on: A-427
Method in brief: (§1)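 For relative viability, nuclei counts in treated wells were divided by those in vehicle wells. Lung cancer cell lines had been pin-tool dosed in 1536-well plates the day after seeding and cultured for 5 days, then fixed and stained in one step (final 0.05% Triton X-100, 1% formaldehyde, 1 ug/ml Hoechst) and imaged at 4×. Doses were one drug alone or a fixed anchor-drug dose plus five library-drug doses (not always all listed) in √10 steps, and values are duplicate-plate medians.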

[2] = tested on: CAL-12T
Method in brief: as §1

[3] = tested on: COR-L 105
Method in brief: as §1

[4] = tested on: COR-L23
Method in brief: as §1

[5] = tested on: EPLC-272H
Method in brief: as §1

[6] = tested on: HOP-62
Method in brief: as §1

[7] = tested on: LCLC-103H
Method in brief: as §1

[8] = tested on: LXF-289
Method in brief: as §1

[9] = tested on: NCI-H1395
Method in brief: as §1

[10] = tested on: NCI-H1651
Method in brief: as §1

[11] = tested on: NCI-H1975
Method in brief: as §1

[12] = tested on: NCI-H1993
Method in brief: as §1

[13] = tested on: NCI-H2023
Method in brief: as §1

[14] = tested on: NCI-H2085
Method in brief: as §1

[15] = tested on: NCI-H2087
Method in brief: as §1

[16] = tested on: NCI-H2170
Method in brief: as §1

[17] = tested on: NCI-H3122
Method in brief: as §1

[18] = tested on: NCI-H596
Method in brief: as §1

[19] = tested on: NCI-H647
Method in brief: as §1

[20] = tested on: NCI-H650
Method in brief: as §1

[21] = tested on: PC-14
Method in brief: as §1

[22] = tested on: RERF-LC-KJ
Method in brief: as §1

[23] = tested on: SK-MES-1
Method in brief: as §1

## Cc1cnc(-c2cnc(NCCNc3ccc(C#N)cn3)nc2-c2ccc(Cl)cc2Cl)[nH]1 + Nc1nc2[nH]cc(CCc3ccc(C(=O)N[C@@H](CCC(=O)O)C(=O)O)cc3)c2c(=O)[nH]1 [Pemetrexed] (partner 0.2 µM)
[1]; first compound 0.08 µM
  relative viability: 0.981
[1]; first compound 0.253 µM
  relative viability: 0.901
[1]; first compound 0.8 µM
  relative viability: 0.928
[1]; first compound 2.53 µM
  relative viability: 0.927
[2]; first compound 0.08 µM
  relative viability: 1.19
[2]; first compound 0.253 µM
  relative viability: 1.04
[2]; first compound 0.8 µM
  relative viability: 1.17
[2]; first compound 2.53 µM
  relative viability: 0.919
[3]; first compound 0.08 µM
  relative viability: 1.25
[3]; first compound 0.253 µM
  relative viability: 1.06
[3]; first compound 0.8 µM
  relative viability: 0.903
[3]; first compound 2.53 µM
  relative viability: 0.832
[4]; first compound 0.08 µM
  relative viability: 0.191
[4]; first compound 0.253 µM
  relative viability: 0.19
[4]; first compound 0.8 µM
  relative viability: 0.198
[4]; first compound 2.53 µM
  relative viability: 0.185
[5]; first compound 0.08 µM
  relative viability: 0.388
[5]; first compound 0.253 µM
  relative viability: 0.293
[5]; first compound 0.8 µM
  relative viability: 0.344
[5]; first compound 2.53 µM
  relative viability: 0.276
[6]; first compound 0.08 µM
  relative viability: 0.26
[6]; first compound 0.253 µM
  relative viability: 0.339
[6]; first compound 0.8 µM
  relative viability: 0.312
[6]; first compound 2.53 µM
  relative viability: 0.236
[7]; first compound 0.08 µM
  relative viability: 0.49
[7]; first compound 0.253 µM
  relative viability: 0.43
[7]; first compound 0.8 µM
  relative viability: 0.453
[7]; first compound 2.53 µM
  relative viability: 0.418
[8]; first compound 0.08 µM
  relative viability: 0.91
[8]; first compound 0.253 µM
  relative viability: 0.818
[8]; first compound 0.8 µM
  relative viability: 0.829
[8]; first compound 2.53 µM
  relative viability: 0.962
[9]; first compound 0.08 µM
  relative viability: 0.958
[9]; first compound 0.253 µM
  relative viability: 0.823
[9]; first compound 0.8 µM
  relative viability: 0.826
[9]; first compound 2.53 µM
  relative viability: 0.756
[10]; first compound 0.08 µM
  relative viability: 0.574
[10]; first compound 0.253 µM
  relative viability: 0.493
[10]; first compound 0.8 µM
  relative viability: 0.528
[10]; first compound 2.53 µM
  relative viability: 0.537
[11]; first compound 0.08 µM
  relative viability: 0.289
[11]; first compound 0.253 µM
  relative viability: 0.285
[11]; first compound 0.8 µM
  relative viability: 0.287
[11]; first compound 2.53 µM
  relative viability: 0.242
[12]; first compound 0.08 µM
  relative viability: 0.6
[12]; first compound 0.253 µM
  relative viability: 0.512
[12]; first compound 0.8 µM
  relative viability: 0.535
[12]; first compound 2.53 µM
  relative viability: 0.519
[13]; first compound 0.08 µM
  relative viability: 0.283
[13]; first compound 0.253 µM
  relative viability: 0.229
[13]; first compound 0.8 µM
  relative viability: 0.199
[13]; first compound 2.53 µM
  relative viability: 0.261
[14]; first compound 0.08 µM
  relative viability: 1.01
[14]; first compound 0.253 µM
  relative viability: 0.852
[14]; first compound 0.8 µM
  relative viability: 0.885
[14]; first compound 2.53 µM
  relative viability: 0.955
[15]; first compound 0.08 µM
  relative viability: 0.714
[15]; first compound 0.8 µM
  relative viability: 0.641
[15]; first compound 2.53 µM
  relative viability: 0.511
[16]; first compound 0.08 µM
  relative viability: 0.253
[16]; first compound 2.53 µM
  relative viability: 0.25
[17]; first compound 0.08 µM
  relative viability: 0.201
[17]; first compound 0.8 µM
  relative viability: 0.183
[17]; first compound 2.53 µM
  relative viability: 0.174
[18]; first compound 0.08 µM
  relative viability: 0.531
[18]; first compound 0.253 µM
  relative viability: 0.485
[18]; first compound 0.8 µM
  relative viability: 0.49
[18]; first compound 2.53 µM
  relative viability: 0.53
[19]; first compound 0.08 µM
  relative viability: 0.18
[19]; first compound 0.253 µM
  relative viability: 0.148
[19]; first compound 0.8 µM
  relative viability: 0.145
[19]; first compound 2.53 µM
  relative viability: 0.114
[20]; first compound 0.08 µM
  relative viability: 0.915
[20]; first compound 0.253 µM
  relative viability: 0.92
[20]; first compound 0.8 µM
  relative viability: 0.934
[20]; first compound 2.53 µM
  relative viability: 0.904
[21]; first compound 0.08 µM
  relative viability: 0.122
[21]; first compound 0.253 µM
  relative viability: 0.127
[21]; first compound 0.8 µM
  relative viability: 0.129
[21]; first compound 2.53 µM
  relative viability: 0.152
[22]; first compound 0.08 µM
  relative viability: 0.496
[22]; first compound 0.253 µM
  relative viability: 0.458
[22]; first compound 0.8 µM
  relative viability: 0.4
[22]; first compound 2.53 µM
  relative viability: 0.424
[23]; first compound 0.08 µM
  relative viability: 0.932
[23]; first compound 0.253 µM
  relative viability: 0.895
[23]; first compound 0.8 µM
  relative viability: 0.977
[23]; first compound 2.53 µM
  relative viability: 0.99
